From US6465499B1 (priority 1996, dated 2002)

Tests used:
[1] = system: Phytophthora infestans; type: in vivo; conditions: tomato young plants, protective spray, rate of application 100 g/ha, evaluated 3 days after inoculation; 0% = as control, 100% = no disease

SMILES	melting point	Efficacy in % [1]
Cc1noc(C)c1S(=O)(=O)n1c(=O)sc2c(C(F)(F)F)cc([N+](=O)[O-])cc21 [Example 6]	210 to 213 °C	93%
Cc1noc(C)c1S(=O)(=O)n1c(=O)sc2c(C(F)(F)F)cc(C(F)(F)F)cc21 [Example 7]	152 to 156 °C	93%
Cc1noc(C)c1S(=O)(=O)n1c(=O)oc2ccc(Cl)cc21 [Example 4]	183 to 187 °C	86%
Cc1noc(C)c1S(=O)(=O)n1c(=O)sc2c([N+](=O)[O-])cc(C(F)(F)F)cc21 [Example 5]	129 to 133 °C	100%
Cc1noc(C)c1S(=O)(=O)n1c(=O)oc2c(Cl)cc(Cl)cc21 [Example 3]	164 to 166 °C	93%
